Source: patent US7596407B2, “Transdermal iontophoretic delivery of piperazinyl-2(3H)-benzoxazolone compounds” (priority 2004, dated 2009)

Columns and labels:
[1] = Iontophoretic transport across hairless rat skin, vertical Franz diffusion cells; type: in vitro ADME; conditions: 30 mM NaCl; for change of iontophoretic flux with active substance concentration (FIG. 4): phosphate buffer pH 4.0
Text: Hairless rats were euthanized by inhalation of carbon dioxide using an exposure chamber designed for such use half hour before start of experiment. The skin from the abdomen was carefully removed, making sure no muscle or fat was attached to the skin. The skin was then cut into small squares to fit the Franz diffusion set (Membrane Transport System, PermeGear, U.S.A) and placed in 0.1 M potassium phosphate buffer until mounted.
(§1) 7-(4-methyl-1-piperazinyl)-2(3H)-benzoxazolone as a HCl salt was dissolved in 10 mM sodium citrate solution. The pH was adjusted to pH 5.5 with 10 mM citric acid. 7-(4-benzyl-1-piperazinyl)-2(3H)-benzoxazolone as a mesylate salt was dissolved in 0.1 M potassium phosphate buffer. The pH was adjusted to pH 4.0 using o-phosphoric acid.
Iontophoresis experiments with 7-(4-benzyl-1-piperazinyl)-2(3H)-benzoxazolone were performed using vertical Franz diffusion cells (Membrane Transport System, PermeGear, U.S.A) hooked up to a Keithley 2400 source meter and the current monitored using a multimeter. The donor half was of the cell was exposed to room temperature (25° C.) while the receptor half was maintained at 37° C. Receptor compartment was continuously stirred. Freshly excised hairless rat skin was mounted on the vertical diffusion cells, after the receptor compartment had been filled with a suitable receptor media, which can maintain the sink condition. The receptor media had the same composition as the donor solution without the drug, so that the sink conditions could be maintained. The formulation was placed in the donor compartment. A silver wire was used as the anode in the donor and a silver/silver chloride wire was used as the cathode in the receptor. Current was applied for 3 hours using a constant current power source. However, sampling was continued till 24 hrs to see if enhanced delivery will stop on terminating current. Samples were taken at pre-determined time intervals from the receptor and analyzed by the HPLC as described below. Samples were replaced with fresh receptor medium and this was taken into consideration in the calculations.
7-(4-benzyl-1-piperazinyl)-2(3H)-benzoxazolone was analyzed using HPLC with UV detection (Waters Alliance system). A Chromsep SS column was used (150*3 mm L*i.d.) with particle size of 5 μm thermostatted at 40° C. The mobile phase was made using 1.54 g ammonium acetate in 460 ml of water (pH adjusted to 4.6 using acetic acid) and 540 ml of methanol and degassed. The flow rate was 0.5 ml/min. The detection wavelength was 243 nm. Injection volume was 10 μl.

[2] = Iontophoretic transport across human stratum corneum, three-chamber continuous flow-through diffusion cells; type: in vitro ADME; conditions: for iontophoretic flux (averages±s.e.m.): 4 g/l NaCl, citrate buffer pH 5.5, 0.5 mA/cm^2; for mean transport during the iontophoretic period: citrate buffer pH 5.5, 0.5 mA/cm^2, no NaCl added; for mean transport during the iontophoretic period (averages±s.e.m.): drug 35 mg/ml, pH 5.5, 0.5 mA/cm^2
Description: Human Stratum Corneum (HSC) was prepared from dermatomed healthy human skin. Within 24 hours after surgical removal of the human skin (abdominal or breast), residual subcutaneous fat was removed. To avoid interference with contaminating subcutaneous fat, the skin surface was carefully wiped with a tissue paper soaked in 70% ethanol. The skin was dermatomed to a thickness of about 300 μm using a Padgett Electro Dermatome Model B (Kansas City, USA). It was then incubated with the dermal side on Whatman paper soaked in a solution of 0.1% trypsin in PBS overnight at 4° C. and subsequently for 1 hour at 37° C. Then HSC was peeled off from the underlying epidermis and dermis. Remaining trypsin activity was blocked by bathing HSC in a 0.1% trypsin inhibitor solution in PBS, pH 7.4. HSC was washed several times in water and stored in a silica gel containing desiccator in a N2 environment to inhibit oxidation of lipids.
as §1
Iontophoresis experiments with 7-(4-methyl-1-piperazinyl)-2(3H)-benzoxazolone were performed using 9-channel computer controlled power supply to provide constant current (Electronics Department, Gorlaeus Laboratories, Leiden University, The Netherlands.) Alternatively the commercial available Power Supply PCT-MK1 of Moor Instruments, UK can be used. A silver plate electrode was used as an anode (e.g. Silver foil >99.99% pure, 1.0 mm thick (Aldrich article nr. 36,943-8), 5 cm long, 3 mm wide) and a silver/silver chloride electrode (prepared by repeatedly (2 or 3 times) dipping silver wire (>99.99% pure, Ø 1.0 mm (Aldrich art. Nr. 26,559-4), bended at the tip to produce a small projection (approx. 3 mm) at a right angle to the vertical electrode shaft in melted silver chloride powder (>99.999% pure, Aldrich art. Nr. 20,438-2) as a cathode. (Alternatively, the silver plate and silver/silver chloride electrodes can be prepared according to chapter 3.4.3. of Ajay K. Banga, Electrically Assisted Transdermal and Topical Drug Delivery, Taylor and Francis Group Ltd., London UK, 1998, ISBN 0-7484-0687-5. or can be purchased from a commercial supplier such as Iomed.)
All diffusion experiments were carried out at a constant current density of 0.5 mA/cm^2, using three chambers continuous flow through diffusion cells at room temperature. The diffusion set up consisted of a peristaltic pump, a fraction collector and 8 diffusion cells (for diffusion cell see FIG. 4). Stratum corneum was used for all diffusion studies. Human stratum corneum was hydrated for two hours in PBS pH 7.4 prior to mounting in the cells. Two pieces of stratum corneum were placed between the anodal and acceptor side, and between acceptor and cathodal side, with the apical side facing the anodal and cathodal compartments. Dialysis membrane (cut off 5,000 D) was used as supporting membrane for the stratum corneum. Parafilm rings were added for making a tight connection between the compartments. The temperature of the acceptor chamber was 37° C. The flow of PBS through the acceptor chamber was kept approximately constant for each cell during the experiment: 6-8 ml per hour. After six hours of passive diffusion, the current was switched on. The current was switched off at t=15 h. During a period of another 5 hours (post iontophoretic period) passive diffusion post iontophoresis was carried out. During iontophoresis, the current density was 0.5 mA/cm^2. The total resistance of the stratum corneum sheets was monitored during the experiment with two additional silver electrodes. A very low resistance is indicative of leakage of the stratum corneum in a cell. When this was observed, the diffusion data obtained were discarded. […]

[3] = HPLC-UV analysis of sample solutions for oxidation or degradation products; type: physicochemical; conditions: HPLC with UV detection, 215 nm
Description: 7-(4-methyl-1-piperazinyl)-2(3H)-benzoxazolone was analyzed using HPLC with UV detection (Waters Chromatography, Etten Leur, The Netherlands). A Chromsep SS column was used (250*3 mm L*i.d.) thermostatted at 30° C. The mobile phase consisted of acetonitrile/methanol/0.7 g/l ammonium acetate buffer at pH 5.6 ([…] v/v) and was used at 0.5 ml/min. The detection wavelength was 215 nm.

[4] = Solubility in donor buffer

SMILES: CS(=O)(=O)O.O=c1[nH]c2cccc(N3CCN(Cc4ccccc4)CC3)c2o1 [7-(4-benzyl-1-piperazinyl)-2(3H)-benzoxazolone mesylate]
- permeation with iontophoresis as compared to passive delivery (FIG. 5) ([1]; current densities 0, 0.1, 0.3 and 0.5 mA): considerably enhances the permeation
- relationship between flux and current density (FIG. 5) ([1]; 5 g/ml solution, current densities 0, 0.1, 0.3 and 0.5 mA): linear relationship between flux and current density
- change of iontophoretic flux with active substance concentration (FIG. 4) ([1]; further increase to 10 mg/ml): no increase in iontophoretic flux
- change of iontophoretic flux with active substance concentration (FIG. 4) ([1]; increase from 1 mg/ml to 5 mg/ml): increase in iontophoretic flux

SMILES: CN1CCN(c2cccc3[nH]c(=O)oc23)CC1.Cl [7-(4-methyl-1-piperazinyl)-2(3H)-benzoxazolone monohydrochloride]
- iontophoretic flux (averages±s.e.m.) ([2]; donor concentration 20 mg/ml): 409±47 μg/hr/cm^2
- mean transport during the iontophoretic period ([2]; donor concentration 20 mg/ml): 394±26 μg/hr/cm^2
- iontophoretic flux (averages±s.e.m.) ([2]; donor concentration 35 mg/ml): 467±74 μg/hr/cm^2
- mean transport during the iontophoretic period ([2]; donor concentration 35 mg/ml): 383±42 μg/hr/cm^2
- iontophoretic flux (averages±s.e.m.) ([2]; donor concentration 55 mg/ml): 580±87 μg/hr/cm^2
- mean transport during the iontophoretic period ([2]; donor concentration 55 mg/ml): 459±59 μg/hr/cm^2
- mean transport during the iontophoretic period ([2]; donor concentration 75 mg/ml): 418±31 μg/hr/cm^2
- mean transport during the iontophoretic period (averages±s.e.m.) ([2]; sodium chloride 0 mg/ml): 471±65 μg/hr/cm^2
- mean transport during the iontophoretic period (averages±s.e.m.) ([2]; sodium chloride 2 mg/ml): 377±37 μg/hr/cm^2
- mean transport during the iontophoretic period (averages±s.e.m.) ([2]; sodium chloride 4 mg/ml): 424±50 μg/hr/cm^2
- oxidation or degradation products in chromatograms of the sample solutions [3]: No oxidation or degradation products of the compound were observed
- share of the maximum solubility that a 35 mg/ml solution represents ([4]; 35 mg/ml, 10 mM citrate pH 5.5, 4 mg/ml NaCl): 80%
- share of the maximum solubility that a 55 mg/ml solution represents ([4]; 55 mg/ml in citrate buffer at pH 5.5 in the presence of 4 g/l NaCl): 85%
- share of the maximum solubility that a 75 mg/ml solution represents ([4]; 75 mg/ml in citrate buffer at pH 5.5): 85%
- dependence of solubility on NaCl concentration ([4]; citrate pH 5.5, NaCl 0-4 mg/ml): increases with reducing NaCl concentration
